Test results as given in US7741341B2, “Benzimidazole-derivatives as factor Xa inhibitors” (sanofi-aventis Deutschland GmbH, priority 2003, dated 2010).
pKi: −log10 of the molar value.

Target: T1, human factor Xa (Homo sapiens, UniProt P00742)
T1 construct: human factor Xa (Enzyme Research Laboratories, Inc; South Bend, Ind.); purchased Enzyme Research Laboratories, Inc; South Bend, Ind
Assay: Factor Xa assay (chromogenic, substrate S-2765)
Type: biochemical
Conditions: read-out: Ki(FXa)
Method: Purified enzymes were used in chromogenic assays.
The IC50 was determined by combining in appropriate wells of a Costar half-area microtiter plate 25 μl human factor Xa (Enzyme Research Laboratories, Inc.; South Bend, Ind.) in TBS-PEG; 40 μl 10% (v/v) DMSO in TBS-PEG (uninhibited control) or various concentrations of the compound to be tested diluted in 10% (v/v) DMSO in TBS-PEG; and substrate S-2765 (N(α)-benzyloxycarbonyl-D-Arg-Gly-L-Arg-p-nitroanilide; Kabi Pharmacia, Inc.; Franklin, Ohio) in TBS-PEG.
The assay was performed by pre-incubating the compound of formula I plus enzyme for 10 min. Then the assay was initiated by adding substrate to obtain a final volume of 100 μl. […] The enzyme concentration was 0.5 nM and substrate concentration was 140 μM.

T1 sequence (P00742 235-488 limits assumed): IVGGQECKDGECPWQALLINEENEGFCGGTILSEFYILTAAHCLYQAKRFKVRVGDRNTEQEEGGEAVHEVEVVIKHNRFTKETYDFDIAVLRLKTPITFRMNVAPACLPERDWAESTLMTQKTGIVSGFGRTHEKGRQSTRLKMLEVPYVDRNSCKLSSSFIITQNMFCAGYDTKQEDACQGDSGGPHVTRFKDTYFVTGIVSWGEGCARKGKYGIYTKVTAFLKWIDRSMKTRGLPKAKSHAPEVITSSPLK
T1 sequence (P00742 41-179 partner limits assumed): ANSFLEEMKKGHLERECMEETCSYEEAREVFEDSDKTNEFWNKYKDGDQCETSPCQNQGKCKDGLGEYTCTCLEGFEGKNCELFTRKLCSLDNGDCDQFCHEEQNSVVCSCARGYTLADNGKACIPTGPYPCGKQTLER

| Structure (SMILES) | pKi |
| --- | --- |
| CC(OC(=O)OC1CCCCC1)OC(=O)c1ccc2c(c1)nc(C(=O)NC1CCN(C(C)C)CC1)n2CC(=O)Nc1ccc(Cl)cn1 (stereo not shown) [Example 60, 1-[(5-Chloro-pyridin-2-ylcarbamoyl)-methyl]-2-(1-isopropyl-piperidin-4-ylcarbamoyl)-1H-benzoimidazole-5-carboxylic acid 1-cyclohexyloxycarbonyloxy-ethyl ester] | 7.46 |
| CC(OC(=O)OC1CCCCC1)OC(=O)c1ccc2nc(C(=O)NC3CCN(C(C)C)CC3)n(CC(=O)Nc3ccc(Cl)cn3)c2c1 (stereo not shown) [Example 61, 3-[(5-Chloro-pyridin-2-ylcarbamoyl)-methyl]-2-(1-isopropyl-piperidin-4-ylcarbamoyl)-3H-benzoimidazole-5-carboxylic acid 1-cyclohexyloxycarbonyloxy-ethyl ester] | 6.06 |
| CCOC(=O)OC(C)OC(=O)c1ccc2c(c1)nc(C(=O)NC1CCN(C(C)C)CC1)n2CC(=O)Nc1ccc(Cl)cn1 (stereo not shown) [Example 62, 1-[(5-Chloro-pyridin-2-ylcarbamoyl)-methyl]-2-(1-isopropyl-piperidin-4-ylcarbamoyl)-1H-benzoimidazole-5-carboxylic acid 1-ethoxycarbonyloxy-ethyl ester] | 7.72 |
| CCOC(=O)OC(C)OC(=O)c1ccc2nc(C(=O)NC3CCN(C(C)C)CC3)n(CC(=O)Nc3ccc(Cl)cn3)c2c1 (stereo not shown) [Example 63, 3-[(5-Chloro-pyridin-2-ylcarbamoyl)-methyl]-2-(1-isopropyl-piperidin-4-ylcarbamoyl)-3H-benzoimidazole-5-carboxylic acid 1-ethoxycarbonyloxy-ethyl ester] | 6.16 |
| CC(C)N1CCC(NC(=O)c2nc3c(C(=O)OCCO)cccc3n2Cc2cc(-c3ccc(Cl)s3)on2)CC1 [Example 64, 1-[5-(5-Chloro-thiophen-2-yl)-isoxazol-3-ylmethyl]-2-(1-isopropyl-piperidin-4-ylcarbamoyl)-1H-benzoimidazole-4-carboxylic acid 2-hydroxy-ethyl ester] | 8.70 |
| CC(C)N1CCC(NC(=O)c2nc3ccc(C(=O)OCCO)cc3n2Cc2cc(-c3ccc(Cl)s3)on2)CC1 [Example 65, 3-[5-(5-Chloro-thiophen-2-yl)-isoxazol-3-ylmethyl]-2-(1-isopropyl-piperidin-4-ylcarbamoyl)-3H-benzoimidazole-5-carboxylic acid 2-hydroxy-ethyl ester] | 6.92 |
| CC(C)N1CCC(NC(=O)c2nc3c(C(=O)OCC(=O)O)cccc3n2Cc2cc(-c3ccc(Cl)s3)on2)CC1 [Example 66, 1-[5-(5-Chloro-thiophen-2-yl)-isoxazol-3-ylmethyl]-2-(1-isopropyl-piperidin-4-ylcarbamoyl)-1H-benzoimidazole-4-carboxylic acid carboxymethyl ester] | 8.52 |
| CC(C)N1CCC(NC(=O)c2nc3c(C(=O)OCC4CC4)cccc3n2CC(=O)Nc2ccc(Cl)cn2)CC1 [Example 69, 1-[(5-Chloro-pyridin-2-ylcarbamoyl)-methyl]-2-(1-isopropyl-piperidin-4-ylcarbamoyl)-1H-benzoimidazole-4-carboxylic acid cyclopropylmethyl ester] | 7.82 |
| COCCOC(=O)c1cccc2c1nc(C(=O)NC1CCN(C(C)C)CC1)n2CC(=O)Nc1ccc(Cl)cn1 [Example 70, 1-[(5-Chloro-pyridin-2-ylcarbamoyl)-methyl]-2-(1-isopropyl-piperidin-4-ylcarbamoyl)-1H-benzoimidazole-4-carboxylic acid 2-methoxy-ethyl ester] | 7.82 |
| CC(C)N1CCC(NC(=O)c2nc3c(CO)cccc3n2CC(=O)Nc2ccc(Cl)cn2)CC1 [Example 71, 1-[(5-Chloro-pyridin-2-ylcarbamoyl)-methyl]-4-hydroxymethyl-1H-benzoimidazole-2-carboxylic acid (1-isopropyl-piperidin-4-yl)-amide] | 8.15 |
| COCCOCc1cccc2c1nc(C(=O)NC1CCN(C(C)C)CC1)n2CC(=O)Nc1ccc(Cl)cn1 [Example 72, 1-[(5-Chloro-pyridin-2-ylcarbamoyl)-methyl]-4-(2-methoxy-ethoxymethyl)-1H-benzoimidazole-2-carboxylic acid (1-isopropyl-piperidin-4-yl)-amide] | 7.90 |
| CC(C)N1CCC(NC(=O)c2nc3c(C(=O)N4CCOCC4)cccc3n2CC(=O)Nc2ccc(Cl)cn2)CC1 [Example 73, 1-[(5-Chloro-pyridin-2-ylcarbamoyl)-methyl]-4-(morpholine-4-carbonyl)-1H-benzoimidazole-2-carboxylic acid (1-isopropyl-piperidin-4-yl)-amide] | 7.72 |
| CC(C)N1CCC(NC(=O)c2nc3c(C(=O)N4CCCOCC4)cccc3n2CC(=O)Nc2ccc(Cl)cn2)CC1 [Example 74, 1-[(5-Chloro-pyridin-2-ylcarbamoyl)-methyl]-4-([1,4]oxazepane-4-carbonyl)-1H-benzoimidazole-2-carboxylic acid (1-isopropyl-piperidin-4-yl)-amide] | 7.98 |
| CC(C)N1CCC(NC(=O)c2nc3c(C(=O)N4C(C)CCCC4C)cccc3n2CC(=O)Nc2ccc(Cl)cn2)CC1 (stereo not shown) [Example 75, 1-[(5-Chloro-pyridin-2-ylcarbamoyl)-methyl]-4-(2,6-dimethyl-piperidine-1-carbonyl)-1H-benzoimidazole-2-carboxylic acid (1-isopropyl-piperidin-4-yl)-amide] | 8.59 |
| CC(C)N1CCC(NC(=O)c2nc3c(C(=O)N4CCC(F)(F)CC4)cccc3n2CC(=O)Nc2ccc(Cl)cn2)CC1 [Example 76, 1-[(5-Chloro-pyridin-2-ylcarbamoyl)-methyl]-4-(4,4-difluoro-piperidine-1-carbonyl)-1H-benzoimidazole-2-carboxylic acid (1-isopropyl-piperidin-4-yl)-amide] | 8.07 |
| CC(C)N1CCC(NC(=O)c2nc3cc(C(=O)N4CCCOCC4)ccc3n2CC(=O)Nc2ccc(Cl)cn2)CC1 [Example 77, 1-[(5-Chloro-pyridin-2-ylcarbamoyl)-methyl]-5-([1,4]oxazepane-4-carbonyl)-1H-benzoimidazole-2-carboxylic acid (1-isopropyl-piperidin-4-yl)-amide] | 7.28 |
| CC(C)N1CCC(NC(=O)c2nc3cc(C(=O)OCCO)ccc3n2Cc2cc(-c3ccc(Cl)s3)on2)CC1 [Example 78, 1-[5-(5-Chloro-thiophen-2-yl)-isoxazol-3-ylmethyl]-2-(1-isopropyl-piperidin-4-ylcarbamoyl)-1H-benzoimidazole-5-carboxylic acid 2-hydroxy-ethyl ester] | 8.46 |
| CC(C)N1CCC(NC(=O)c2nc3cc(C(=O)OCC(=O)O)ccc3n2Cc2cc(-c3ccc(Cl)s3)on2)CC1 [Example 79, 1-[5-(5-Chloro-thiophen-2-yl)-isoxazol-3-ylmethyl]-2-(1-isopropyl-piperidin-4-ylcarbamoyl)-1H-benzoimidazole-5-carboxylic acid carboxymethyl ester] | 9.00 |
| COC1CN(C(=O)c2cccc3c2nc(C(=O)NC2CCN(C(C)C)CC2)n3Cc2cc(-c3ccc(Cl)s3)on2)C1 [Example 80, 1-[5-(5-Chloro-thiophen-2-yl)-isoxazol-3-ylmethyl]-4-(3-methoxy-azetidine-1-carbonyl)-1H-benzoimidazole-2-carboxylic acid (1-isopropyl-piperidin-4-yl)-amide] | 8.15 |
| CC(C)N1CCC(NC(=O)c2nc3c(C(=O)N4CCC(O)CC4)cccc3n2Cc2cc(-c3ccc(Cl)s3)on2)CC1 [Example 91, 1-[5-(5-Chloro-thiophen-2-yl)-isoxazol-3-ylmethyl]-4-(4-hydroxy-piperidine-1-carbonyl)-1H-benzoimidazole-2-carboxylic acid (1-isopropyl-piperidin-4-yl)-amide] | 7.68 |
| CC(C)N1CCC(NC(=O)c2nc3c(c(=O)n(C)c(=O)n3C)n2Cc2cc(-c3ccc(Cl)s3)on2)CC1 [Example 92, 7-[5-(5-Chloro-thiophen-2-yl)-isoxazol-3-ylmethyl]-1,3-dimethyl-2,6-dioxo-2,3,6,7-tetrahydro-1H-purine-8-carboxylic acid (1-isopropyl-piperidin-4-yl)-amide] | 7.65 |
| CC(C)N1CCC(NC(=O)c2nc3c(C(=O)NCCO)scc3n2Cc2cc(-c3ccc(Cl)s3)on2)CC1 [Example 102, 3-[5-(5-Chloro-thiophen-2-yl)-isoxazol-3-ylmethyl]-3H-thieno[3,4-d]imidazole-2,6-dicarboxylic acid 6-[(2-hydroxy-ethyl)-amide]2-[(1-isopropyl-piperidin-4-yl)-amide]] | 8.60 |
| CC(C)N1CCC(NC(=O)c2nc3c(C(=O)N4CCCOCC4)scc3n2CC(=O)Nc2ccc(Cl)cn2)CC1 [Example 104, 3-[(5-Chloro-pyridin-2-ylcarbamoyl)-methyl]-6-([1,4]oxazepane-4-carbonyl)-3H-thieno[3,4-d]imidazole-2-carboxylic acid (1-isopropyl-piperidin-4-yl)-amide] | 7.70 |
| COC(=O)c1sc(OCC(F)(F)F)c2nc(C(=O)NC3CCN(C(C)C)CC3)n(Cc3cc(-c4ccc(Cl)s4)on3)c12 [Example 105, 3-[5-(5-Chloro-thiophen-2-yl)-isoxazol-3-ylmethyl]-2-(1-isopropyl-piperidin-4-ylcarbamoyl)-6-(2,2,2-trifluoro-ethoxy)-3H-thieno[3,4-d]imidazole-4-carboxylic acid methyl ester] | 4.26 |
| COCCOc1cccc2c1nc(C(=O)NC1CCN(C(C)C)CC1)n2CC(=O)Nc1ccc(Cl)cn1 [Example 108, 1-[(5-Chloro-pyridin-2-ylcarbamoyl)-methyl]-4-(2-methoxy-ethoxy)-1H-benzoimidazole-2-carboxylic acid (1-isopropyl-piperidin-4-yl)-amide] | 8.19 |
